Data on 25 compounds can be found in patent publication US11390616B2 (BRISTOL-MYERS SQUIBB COMPANY, priority 2015, dated 2022).

Molecules are shown by their SMILES. Like-named read-outs stand apart in the source and are kept apart here.

The target in the experiment is T1, human APJ receptor (Homo sapiens, UniProt P35414).
T1 construct: expressed in transfected cells; host or cells: HEK293
T1 sequence (P35414 1-380): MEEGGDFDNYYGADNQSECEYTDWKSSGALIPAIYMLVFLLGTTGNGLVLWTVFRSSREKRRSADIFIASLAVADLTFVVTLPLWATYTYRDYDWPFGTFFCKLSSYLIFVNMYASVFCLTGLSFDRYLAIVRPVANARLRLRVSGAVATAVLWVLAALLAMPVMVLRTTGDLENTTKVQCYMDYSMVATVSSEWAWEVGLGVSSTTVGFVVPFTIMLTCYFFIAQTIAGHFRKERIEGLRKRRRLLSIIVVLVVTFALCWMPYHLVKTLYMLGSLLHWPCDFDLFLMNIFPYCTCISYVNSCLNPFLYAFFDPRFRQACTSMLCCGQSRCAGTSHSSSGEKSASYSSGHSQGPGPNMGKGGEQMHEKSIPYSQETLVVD
The experiment can be described thus: Intracellular cAMP accumulation assay (APJ hcAMP, HTRF). The class given is cell-based. The note with it: HEK293 cells stably expressing human APJ receptor, inhibition of forskolin-mediated cAMP production. How it is done:
Intracellular cAMP Accumulation Assay
HEK293 cells stably expressing human APJ receptor were used to assess the activity of compounds. Cultured cells were detached and resuspended in the cAMP Homogeneous Time-Resolved Fluorescence (HTRF) assay buffer (Cisbio cat; #62AM4PEJ). The assay was performed in 384-well assay plates (Perkin-Elmer; cat #6008289) according to assay protocol provided by the manufacturer. Serial dilutions of a compound together with assay buffer containing […] IBMX and 2 μM forskolin were added to each well containing 5,000 cells and incubated for 30 minutes at room temperature. Subsequently, cAMP D2 reagent was added in the lysis buffer followed by the EuK antibody (Cisbio; cat #62AM4PEJ) and incubated for 60 min. The fluorescence emission ratio was measured using fluorometer. The intracellular cAMP concentrations (compound-stimulated inhibition of forskolin-mediated cAMP production) were calculated by extrapolation from a standard curve using known cAMP concentrations. The EC50 values were obtained by fitting the data to a sigmoidal concentration-response curve with variable slope. The maximal achievable inhibition of forskolin-induced cAMP levels (Ymax) for each compound was expressed as relative percentage of inhibition attained using pyroglutamated apelin-13 ((Pyr1)apelin-13) peptide, which was set to 100%.
The examples disclosed below were tested in the APJ in vitro assays described above and were found having human APJ cyclic AMP (hcAMP) activity. The EC50 value of each compound is presented at the end of the example description.
The biological activity of the exemplified compounds of this invention determined by the assay described above is shown at the end of each example.

The mark [1] stands for this setting: read-out: APJ cAMP Potency range.

As for `CCCCc1nc(O)c(Cc2ccc(-n3ccccc3=O)cc2)c(=O)n1-c1c(OC)cccc1OC` [Example 28, 2-butyl-3-(2,6-dimethoxyphenyl)-6-hydroxy-5-{[4-(2-oxo-1,2-dihydropyridin-1-yl)phenyl]methyl}-3,4-dihydropyrimidin-4-one], the EC50 under setting [1] was 0.01 to 10 nM. Still for that read-out and setting: for `CCCCc1nc(O)c(Cc2ccc(-c3ccc(OC)cc3)nc2)c(=O)n1-c1c(OC)cccc1OC` [Example 29, 2-butyl-3-(2,6-dimethoxyphenyl)-6-hydroxy-5-{[6-(4-methoxyphenyl)pyridin-3-yl]methyl}-3,4-dihydropyrimidin-4-one] the value was 0.01 to 10 nM; for `CCCCc1nc(O)c(Cc2cnn(Cc3ccccc3)c2)c(=O)n1-c1c(OC)cccc1OC` [Example 30, 5-[(1-benzyl-1H-pyrazol-4-yl)methyl]-2-butyl-3-(2,6-dimethoxyphenyl)-6-hydroxy-3,4-dihydropyrimidin-4-one], 0.01 to 10 nM.

`CCOCc1nc(O)c(Cc2ccn(-c3ccc(Cl)cc3)n2)c(=O)n1-c1c(OC)cccc1OC` [Example 31, 5-{[1-(4-chlorophenyl)-1H-pyrazol-3-yl]methyl}-3-(2,6-dimethoxyphenyl)-2-(ethoxymethyl)-6-hydroxy-3,4-dihydropyrimidin-4-one]: under setting [1], the EC50 lay in the range of 10 to 100 nM. The same measure, in the same setting: for `CCOCc1nc(O)c(Cc2ccc(-c3ncon3)cc2)c(=O)n1-c1c(OC)cccc1OC` [Example 32, 3-(2,6-dimethoxyphenyl)-2-(ethoxymethyl)-6-hydroxy-5-{[4-(1,2,4-oxadiazol-3-yl)phenyl]methyl}-3,4-dihydropyrimidin-4-one] the value was 10 to 100 nM; for `CCOCc1nc(O)c(Cc2coc(-c3ccc(Cl)cc3)n2)c(=O)n1-c1c(OC)cccc1OC` [Example 33, 5-{[2-(4-chlorophenyl)-1,3-oxazol-4-yl]methyl}-3-(2,6-dimethoxyphenyl)-2-(ethoxymethyl)-6-hydroxy-3,4-dihydropyrimidin-4-one], 10 to 100 nM. On the same count and under the same terms, for `COc1cccc(OC)c1-n1c(CCC(C)C)nc(O)c(Cc2ccc(-n3ccccc3=O)cc2)c1=O` [Example 34, 3-(2,6-dimethoxyphenyl)-6-hydroxy-2-(3-methylbutyl)-5-{[4-(2-oxo-1,2-dihydropyridin-1-yl)phenyl]methyl}-3,4-dihydropyrimidin-4-one] the value was 0.01 to 10 nM; for `CCCCc1nc(O)c(Cc2ccc(N3CCCCC3=O)cc2)c(=O)n1-c1c(OC)cccc1OC` [Example 35, 2-butyl-3-(2,6-dimethoxyphenyl)-6-hydroxy-5-{[4-(2-oxopiperidin-1-yl)phenyl]methyl}-3,4-dihydropyrimidin-4-one], 0.01 to 10 nM. On the same count and under the same terms, for `CCCCc1nc(O)c(Cc2ccc(N3CCOCC3)cc2)c(=O)n1-c1c(OC)cccc1OC` [Example 36, 2-butyl-3-(2,6-dimethoxyphenyl)-6-hydroxy-5-{[4-(morpholin-4-yl)phenyl]methyl}-3,4-dihydropyrimidin-4-one] the value was 0.01 to 10 nM.

Take `COc1cccc(OC)c1-n1c(-c2ccc(F)cc2)nc(O)c(Cc2ccc(-n3cc(F)ccc3=O)cc2)c1=O` [Example 37, 3-(2,6-dimethoxyphenyl)-5-(4-(5-fluoro-2-oxopyridin-1(2H)-yl)benzyl)-2-(4-fluorophenyl)-6-hydroxypyrimidin-4(3H)-one]: the EC50 (read-out: Human APJ cAMP EC50 potency range) was in the range of 0.01 to 10 nM. Turning to `COc1cccc(OC)c1-n1c(C2CCCC2)nc(O)c(Cc2ccc(-n3ccccc3=O)cc2)c1=O` [Example 38, 2-cyclopentyl-3-(2,6-dimethoxyphenyl)-6-hydroxy-5-{[4-(2-oxo-1,2-dihydropyridin-1-yl)phenyl]methyl}-3,4-dihydropyrimidin-4-one], under setting [1], the EC50 was in the range of 0.01 to 10 nM.

Regarding `COc1cccc(OC)c1-n1c(COC2CCC2)nc(O)c(Cc2ccc(-n3ccccc3=O)cc2)c1=O` [Example 39, 2-(cyclobutoxymethyl)-3-(2,6-dimethoxyphenyl)-6-hydroxy-5-{[4-(2-oxo-1,2-dihydropyridin-1-yl)phenyl]methyl}-3,4-dihydropyrimidin-4-one], the EC50 under setting [1] lay in the range of 0.01 to 10 nM.

Regarding `COc1cccc(OC)c1-n1c(COC2CC2)nc(O)c(Cc2ccc(-n3ccccc3=O)cc2)c1=O` [Example 40, 2-(cyclopropoxymethyl)-3-(2,6-dimethoxyphenyl)-6-hydroxy-5-{[4-(2-oxo-1,2-dihydropyridin-1-yl)phenyl]methyl}-3,4-dihydropyrimidin-4-one], the EC50 under setting [1] was in the range of 0.01 to 10 nM. The same measure, in the same setting: for `COc1cccc(OC)c1-n1c(CCC2CC2)nc(O)c(Cc2ccc(-n3ccccc3=O)cc2)c1=O` [Example 41, 2-(2-cyclopropylethyl)-3-(2,6-dimethoxyphenyl)-6-hydroxy-5-{[4-(2-oxo-1,2-dihydropyridin-1-yl)phenyl]methyl}-3,4-dihydropyrimidin-4-one] the value was 0.01 to 10 nM.

Turning to `CCCCc1nc(O)c(Cc2ccc(-n3ccc(Cl)cc3=O)cc2)c(=O)n1-c1c(OC)cccc1OC` [Example 42, 2-butyl-5-{[4-(4-chloro-2-oxo-1,2-dihydropyridin-1-yl)phenyl]methyl}-3-(2,6-dimethoxyphenyl)-6-hydroxy-3,4-dihydropyrimidin-4-one], the EC50 under setting [1] was 0.01 to 10 nM. Same read-out and setting: for `CCCCc1nc(O)c(Cc2ccc(-n3ccc(C)cc3=O)cc2)c(=O)n1-c1c(OC)cccc1OC` [Example 43, 2-butyl-3-(2,6-dimethoxyphenyl)-6-hydroxy-5-{[4-(4-methyl-2-oxo-1,2-dihydropyridin-1-yl)phenyl]methyl}-3,4-dihydropyrimidin-4-one] the value was 0.01 to 10 nM; for `CCCCc1nc(O)c(Cc2ccc(-c3ccc(C)nc3)cc2)c(=O)n1-c1c(OC)cccc1OC` [Example 44, 2-butyl-3-(2,6-dimethoxyphenyl)-6-hydroxy-5-{[4-(6-methylpyridin-3-yl)phenyl]methyl}-3,4-dihydropyrimidin-4-one], 10 to 100 nM; for `CCCCc1nc(O)c(Cc2ccc(-c3ccccc3)cc2)c(=O)n1-c1c(OC)cccc1OC` [Example 45, 5-({[1,1′-biphenyl]-4-yl}methyl)-2-butyl-3-(2,6-dimethoxyphenyl)-6-hydroxy-3,4-dihydropyrimidin-4-one], 0.01 to 10 nM.

`CCCCc1nc(O)c(Cc2ccc(-c3ccc(Cl)cn3)cc2)c(=O)n1-c1c(OC)cccc1OC` [Example 46, 2-butyl-5-{[4-(5-chloropyridin-2-yl)phenyl]methyl}-3-(2,6-dimethoxyphenyl)-6-hydroxy-3,4-dihydropyrimidin-4-one]: the EC50 under setting [1] lay within 0.01 to 10 nM. Same read-out and setting: for `CCCCc1nc(O)c(Cc2ccc(-n3cc(F)ccc3=O)cc2)c(=O)n1-c1c(OC)cccc1OC` [Example 47, 2-butyl-3-(2,6-dimethoxyphenyl)-5-{[4-(5-fluoro-2-oxo-1,2-dihydropyridin-1-yl)phenyl]methyl}-6-hydroxy-3,4-dihydropyrimidin-4-one] the value was 0.01 to 10 nM. Same read-out and setting: for `CCCCc1nc(O)c(Cc2ccc(-c3cccnc3OC)cc2)c(=O)n1-c1c(OC)cccc1OC` [Example 48, 2-butyl-3-(2,6-dimethoxyphenyl)-6-hydroxy-5-{[4-(2-methoxypyridin-3-yl)phenyl]methyl}-3,4-dihydropyrimidin-4-one] the value was 0.01 to 10 nM. Turning to `CCCCc1nc(O)c(Cc2ccc(-n3cc(Cl)ccc3=O)cc2)c(=O)n1-c1c(OC)cccc1OC` [Example 49, 2-butyl-5-{[4-(5-chloro-2-oxo-1,2-dihydropyridin-1-yl)phenyl]methyl}-3-(2,6-dimethoxyphenyl)-6-hydroxy-3,4-dihydropyrimidin-4-one], under setting [1], the EC50 was in the range of 0.01 to 10 nM. Same read-out and setting: for `CCCCc1nc(O)c(Cc2ccc(-n3cc(C)ccc3=O)cc2)c(=O)n1-c1c(OC)cccc1OC` [Example 50, 2-butyl-3-(2,6-dimethoxyphenyl)-6-hydroxy-5-{[4-(5-methyl-2-oxo-1,2-dihydropyridin-1-yl)phenyl]methyl}-3,4-dihydropyrimidin-4-one] the value was 0.01 to 10 nM.

For the compound `COc1cccc(OC)c1-n1c(C2CCCC2)nc(O)c(Cc2ccc(-n3cc(F)ccc3=O)cc2)c1=O` [Example 51, 2-cyclopentyl-3-(2,6-dimethoxyphenyl)-5-{[4-(5-fluoro-2-oxo-1,2-dihydropyridin-1-yl)phenyl]methyl}-6-hydroxy-3,4-dihydropyrimidin-4-one], the EC50 under setting [1] fell in the range of 0.01 to 10 nM.

As for `COc1cccc(OC)c1-n1c(CCC(C)C)nc(O)c(Cc2ccc(-n3cc(F)ccc3=O)cc2)c1=O` [Example 52, 3-(2,6-dimethoxyphenyl)-5-{[4-(5-fluoro-2-oxo-1,2-dihydropyridin-1-yl)phenyl]methyl}-6-hydroxy-2-(3-methylbutyl)-3,4-dihydropyrimidin-4-one], under setting [1], the EC50 fell in the range of 0.01 to 10 nM.
